16 compounds from ChEMBL document CHEMBL1240375, “Identification of a plasmid-borne resistance gene cluster comprising the resistance genes erm(T), dfrK, and tet(L) in a porcine methicillin-resistant Staphylococcus aureus ST398 strain” (2010) can be followed below.

Converted amounts (≈) assume the structure as drawn. A value given as a limit tells only on which side of the number the result lay.

For assay [1], the system named is Staphylococcus aureus. The assay is described as follows: Antimicrobial activity against Staphylococcus aureus RN4220 transformant carrying plasmid pKKS25 and expressing erm(T), dfrK and tet(L) genes by broth microdilution method. It is filed as functional. A general note: Dilution methods test growth across graded concentrations, often in twofold steps.
Assay [2] deals with Staphylococcus aureus. The assay is described as follows: Antimicrobial activity against Staphylococcus aureus RN4220 by broth microdilution method. It counts as functional.
Assay [3] deals with Staphylococcus aureus. The assay is described as follows: Antimicrobial activity against Staphylococcus aureus 25 transformant carrying plasmid pKKS25 and expressing erm(T), dfrKtet(L), tet(K), tet(M), mecA and blaZ genes by broth microdilution method.

The term MIC denotes the smallest concentration in the dilution series that meets the test's criterion for growth inhibition. High values mean a need for much substance, low ones inhibition by little substance. Turning to `C=C[C@]1(C)C[C@@H](OC(=O)CSCCN(CC)CC)[C@]2(C)[C@H](C)CC[C@]3(CCC(=O)[C@H]32)[C@@H](C)[C@@H]1O` [TIAMULIN], the values for the MIC in the assay with Staphylococcus aureus [1], in the assay on Staphylococcus aureus [2] and against Staphylococcus aureus [3] were 0.12 µg/mL (≈ 0.243 µM), 0.12 µg/mL (≈ 0.243 µM) and 0.5 µg/mL (≈ 1.01 µM), respectively.

Turning to `CCN1CCN(c2cc3c(cc2F)c(=O)c(C(=O)O)cn3C2CC2)CC1` [ENROFLOXACIN], the MIC against Staphylococcus aureus [1], with Staphylococcus aureus [2] and in the assay on Staphylococcus aureus [3] was 0.25 µg/mL (≈ 0.696 µM) each time.

With `CCC[C@@H]1C[C@@H](C(=O)N[C@@H]([C@H]2O[C@H](SC)[C@H](O)[C@@H](O)[C@H]2O)[C@H](C)Cl)N(C)C1` [CLINDAMYCIN], the MIC is at least 64 µg/mL in the assay on Staphylococcus aureus [1], at most 0.12 µg/mL against Staphylococcus aureus [2] and at least 64 µg/mL against Staphylococcus aureus [3].

Turning to `CN[C@@H]1[C@H](O)[C@H](NC)[C@H]2O[C@@]3(O)C(=O)C[C@@H](C)O[C@H]3O[C@@H]2[C@H]1O` [SPECTINOMYCIN], the MIC in the assay with Staphylococcus aureus [1], with Staphylococcus aureus [2] and with Staphylococcus aureus [3] was 64 µg/mL (≈ 193 µM) each time.

With `COc1cc(Cc2cnc(N)nc2N)cc(OC)c1OC` [TRIMETHOPRIM], the MIC is at least 128 µg/mL in the assay on Staphylococcus aureus [1], 0.5 µg/mL (≈ 1.72 µM) in the assay on Staphylococcus aureus [2] and at least 128 µg/mL against Staphylococcus aureus [3].

Take `CC[C@H]1OC(=O)C[C@@H](O)[C@H](C)[C@@H](O[C@@H]2O[C@H](C)[C@@H](O[C@H]3C[C@@](C)(O)[C@@H](O)[C@H](C)O3)[C@H](N(C)C)[C@H]2O)[C@@H](CC=O)C[C@@H](C)C(=O)/C=C/C(C)=C/[C@@H]1CO[C@@H]1O[C@H](C)[C@@H](O)[C@@H](OC)[C@H]1OC.O=C(O)C(O)C(O)C(=O)O` [TYLOCIN TARTARATE]: the MIC is at least 64 µg/mL with Staphylococcus aureus [1], 1 µg/mL in the assay on Staphylococcus aureus [2] and at least 64 µg/mL against Staphylococcus aureus [3].

With `CN[C@@H]1[C@@H](O[C@H]2O[C@H](CO)[C@@H](N)[C@H](O)[C@H]2O)OC2C[C@@H](N)[C@@H](O[C@H]3[C@H](O)[C@@H](O)[C@H](N)C[C@@H]3N)OC2[C@@H]1O` (stereo not given in full) [APRAMYCIN], the MIC was found to be 1 µg/mL (≈ 1.85 µM) in the assay on Staphylococcus aureus [1], 1 µg/mL (≈ 1.85 µM) in the assay with Staphylococcus aureus [2] and 4 µg/mL (≈ 7.41 µM) in the assay with Staphylococcus aureus [3].

With `CC1(C)S[C@@H]2[C@H](NC(=O)[C@H](N)c3ccccc3)C(=O)N2[C@H]1C(=O)O` [AMPICILLIN], the MIC against Staphylococcus aureus [1] and against Staphylococcus aureus [2] was 0.06 µg/mL (≈ 0.172 µM) in each case.

As for `CC(=O)NC[C@H]1CN(c2ccc(N3CCOCC3)c(F)c2)C(=O)O1` [LINEZOLID], the MIC in the assay on Staphylococcus aureus [1], in the assay on Staphylococcus aureus [2] and in the assay on Staphylococcus aureus [3] was 0.5 µg/mL (≈ 1.48 µM) throughout.

As to `Cc1onc(-c2ccccc2)c1C(=O)N[C@@H]1C(=O)N2[C@@H]1SC(C)(C)[C@@H]2C(=O)O` [OXACILLIN], the minimum inhibitory concentration (MIC) stood at 0.06 µg/mL (≈ 0.149 µM) in the assay on Staphylococcus aureus [1], 0.06 µg/mL (≈ 0.149 µM) against Staphylococcus aureus [2] and 8 µg/mL (≈ 19.9 µM) in the assay with Staphylococcus aureus [3].

Turning to `O=C(N[C@H](CO)[C@H](O)c1ccc([N+](=O)[O-])cc1)C(Cl)Cl` [CHLORAMPHENICOL], the MIC against Staphylococcus aureus [1] turned out to be 4 µg/mL (≈ 12.4 µM); with Staphylococcus aureus [2] it was 4 µg/mL (≈ 12.4 µM); in the assay with Staphylococcus aureus [3], 8 µg/mL (≈ 24.8 µM).

Take `CC1(C)S[C@@H]2[C@H](NC(=O)Cc3ccccc3)C(=O)N2[C@H]1C(=O)O` [PENICILLIN G]: the results for the MIC against Staphylococcus aureus [2] and in the assay with Staphylococcus aureus [3] were at most 0.03 µg/mL and 16 µg/mL (≈ 47.8 µM), respectively.

Turning to `CC[C@H]1OC(=O)[C@H](C)[C@@H](O[C@H]2C[C@@](C)(OC)[C@@H](O)[C@H](C)O2)[C@H](C)[C@@H](O[C@@H]2O[C@H](C)C[C@H](N(C)C)[C@H]2O)[C@](C)(O)C[C@@H](C)C(=O)[C@H](C)[C@@H](O)[C@]1(C)O` [ERYTHROMYCIN], the results for the MIC in the assay with Staphylococcus aureus [1], against Staphylococcus aureus [2] and with Staphylococcus aureus [3] were at least 128 µg/mL, 0.25 µg/mL (≈ 0.341 µM) and at least 128 µg/mL, respectively.

With GENTAMICIN, the MIC with Staphylococcus aureus [1] and in the assay with Staphylococcus aureus [2] was 0.25 µg/mL each time.

Turning to `CN(C)[C@@H]1C(O)=C(C(N)=O)C(=O)[C@@]2(O)C(O)=C3C(=O)c4c(O)cccc4[C@@](C)(O)[C@H]3C[C@@H]12` [TETRACYCLINE], the MIC against Staphylococcus aureus [1] was 32 µg/mL (≈ 72 µM); against Staphylococcus aureus [2], 0.06 µg/mL (≈ 0.135 µM); against Staphylococcus aureus [3], 128 µg/mL (≈ 288 µM).

Consider `C=C[C@]1(C)C[C@@H](OC(=O)CSC(C)(C)CNC(=O)[C@H](N)C(C)C)[C@]2(C)[C@H](C)CC[C@]3(CCC(=O)[C@H]32)[C@@H](C)[C@@H]1O` [VALNEMULIN], for which the MIC against Staphylococcus aureus [1], against Staphylococcus aureus [2] and with Staphylococcus aureus [3] was 0.03 µg/mL (≈ 0.0531 µM) throughout.
